The supplement of paper PMC10307832

Key:
Assay in all cases: relative viability (nuclei count vs DMSO), 5 days (fraction); higher = more cells survive
NCI-H1395 = test system: NCI-H1395
Method in brief: (§1)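 Lung cancer cell lines were seeded in 1536-well plates and dosed by pin tool the next day, with either a single drug or a fixed anchor-drug dose combined with five library-drug doses (not always all listed) spaced in √10 steps. Five days later, one step fixed the cells and stained their nuclei (final 0.05% Triton X-100, 1% formaldehyde, 1 ug/ml Hoechst), and nuclei were counted on 4× images. Relative viability is the nuclei count in treated wells divided by the count in vehicle wells, and each value is the median of duplicate plates.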

NCI-H2009 = test system: NCI-H2009
Method in brief: as §1

NCI-H2228 = test system: NCI-H2228
Method in brief: as §1

EPLC-272H = test system: EPLC-272H
Method in brief: as §1

NCI-H661 = test system: NCI-H661
Method in brief: as §1

NCI-H23 = test system: NCI-H23
Method in brief: as §1

BEN = test system: BEN
Method in brief: as §1

NCI-H322M = test system: NCI-H322M
Method in brief: as §1

NCI-H650 = test system: NCI-H650
Method in brief: as §1

HCC-78 = test system: HCC-78
Method in brief: as §1

NCI-H2342 = test system: NCI-H2342
Method in brief: as §1

HCC-15 = test system: HCC-15
Method in brief: as §1

NCI-H460 = test system: NCI-H460
Method in brief: as §1

NCI-H2126 = test system: NCI-H2126
Method in brief: as §1

PC-14 = test system: PC-14
Method in brief: as §1

LCLC-97TM1 = test system: LCLC-97TM1
Method in brief: as §1

NCI-H2405 = test system: NCI-H2405
Method in brief: as §1

NCI-H838 = test system: NCI-H838
Method in brief: as §1

LU99A = test system: LU99A
Method in brief: as §1

NCI-H2085 = test system: NCI-H2085
Method in brief: as §1

201T = test system: 201T
Method in brief: as §1

NCI-H1355 = test system: NCI-H1355
Method in brief: as §1

NCI-H647 = test system: NCI-H647
Method in brief: as §1

## CCNC(=O)c1noc(-c2cc(C(C)C)c(O)cc2O)c1-c1ccc(CN2CCOCC2)cc1 [Luminespib] + O=C(c1cc(Cc2n[nH]c(=O)c3ccccc23)ccc1F)N1CCN(C(=O)C2CC2)CC1 [Olaparib] (partner 8 µM)
NCI-H1395; first compound 0.002 µM
  relative viability: 0.465
NCI-H1395; first compound 0.006325 µM
  relative viability: 0.454
NCI-H1395; first compound 0.02 µM
  relative viability: 0.427
NCI-H1395; first compound 0.06325 µM
  relative viability: 0.403
NCI-H1395; first compound 0.2 µM
  relative viability: 0.383
NCI-H2009; first compound 0.002 µM
  relative viability: 0.763
NCI-H2009; first compound 0.006325 µM
  relative viability: 0.67
NCI-H2009; first compound 0.02 µM
  relative viability: 0.701
NCI-H2009; first compound 0.06325 µM
  relative viability: 0.409
NCI-H2009; first compound 0.2 µM
  relative viability: 0.0486
NCI-H2228; first compound 0.002 µM
  relative viability: 0.595
NCI-H2228; first compound 0.006325 µM
  relative viability: 0.638
NCI-H2228; first compound 0.02 µM
  relative viability: 0.326
NCI-H2228; first compound 0.06325 µM
  relative viability: 0.128
NCI-H2228; first compound 0.2 µM
  relative viability: 0.142
EPLC-272H; first compound 0.002 µM
  relative viability: 0.812
EPLC-272H; first compound 0.006325 µM
  relative viability: 0.702
EPLC-272H; first compound 0.02 µM
  relative viability: 0.709
EPLC-272H; first compound 0.06325 µM
  relative viability: 0.0637
EPLC-272H; first compound 0.2 µM
  relative viability: 0.082
NCI-H661; first compound 0.002 µM
  relative viability: 0.754
NCI-H661; first compound 0.006325 µM
  relative viability: 0.804
NCI-H661; first compound 0.02 µM
  relative viability: 0.807
NCI-H661; first compound 0.06325 µM
  relative viability: 0.414
NCI-H661; first compound 0.2 µM
  relative viability: 0.3
NCI-H23; first compound 0.002 µM
  relative viability: 0.36
NCI-H23; first compound 0.006325 µM
  relative viability: 0.333
NCI-H23; first compound 0.02 µM
  relative viability: 0.346
NCI-H23; first compound 0.06325 µM
  relative viability: 0.102
NCI-H23; first compound 0.2 µM
  relative viability: 0.121
BEN; first compound 0.002 µM
  relative viability: 1.24
BEN; first compound 0.006325 µM
  relative viability: 0.905
BEN; first compound 0.02 µM
  relative viability: 0.823
BEN; first compound 0.06325 µM
  relative viability: 0.273
BEN; first compound 0.2 µM
  relative viability: 0.279
NCI-H322M; first compound 0.002 µM
  relative viability: 0.799
NCI-H322M; first compound 0.006325 µM
  relative viability: 0.738
NCI-H322M; first compound 0.02 µM
  relative viability: 0.729
NCI-H322M; first compound 0.06325 µM
  relative viability: 0.344
NCI-H322M; first compound 0.2 µM
  relative viability: 0.439
NCI-H650; first compound 0.002 µM
  relative viability: 0.452
NCI-H650; first compound 0.006325 µM
  relative viability: 0.338
NCI-H650; first compound 0.02 µM
  relative viability: 0.34
NCI-H650; first compound 0.06325 µM
  relative viability: 0.061
NCI-H650; first compound 0.2 µM
  relative viability: 0.0723
HCC-78; first compound 0.002 µM
  relative viability: 0.773
HCC-78; first compound 0.006325 µM
  relative viability: 0.785
HCC-78; first compound 0.02 µM
  relative viability: 0.723
HCC-78; first compound 0.06325 µM
  relative viability: 0.643
HCC-78; first compound 0.2 µM
  relative viability: 0.32
NCI-H2342; first compound 0.002 µM
  relative viability: 0.411
NCI-H2342; first compound 0.006325 µM
  relative viability: 0.512
NCI-H2342; first compound 0.02 µM
  relative viability: 0.324
NCI-H2342; first compound 0.06325 µM
  relative viability: 0.348
NCI-H2342; first compound 0.2 µM
  relative viability: 0.238
HCC-15; first compound 0.002 µM
  relative viability: 0.778
HCC-15; first compound 0.006325 µM
  relative viability: 0.682
HCC-15; first compound 0.02 µM
  relative viability: 0.734
HCC-15; first compound 0.06325 µM
  relative viability: 0.345
HCC-15; first compound 0.2 µM
  relative viability: 0.154
NCI-H460; first compound 0.002 µM
  relative viability: 0.514
NCI-H460; first compound 0.006325 µM
  relative viability: 0.37
NCI-H460; first compound 0.02 µM
  relative viability: 0.454
NCI-H460; first compound 0.06325 µM
  relative viability: 0.0514
NCI-H460; first compound 0.2 µM
  relative viability: 0.0343
NCI-H2126; first compound 0.002 µM
  relative viability: 0.924
NCI-H2126; first compound 0.006325 µM
  relative viability: 0.887
NCI-H2126; first compound 0.06325 µM
  relative viability: 0.899
NCI-H2126; first compound 0.2 µM
  relative viability: 0.903
PC-14; first compound 0.002 µM
  relative viability: 0.288
PC-14; first compound 0.006325 µM
  relative viability: 0.261
PC-14; first compound 0.02 µM
  relative viability: 0.101
PC-14; first compound 0.06325 µM
  relative viability: 0.0578
PC-14; first compound 0.2 µM
  relative viability: 0.0514
LCLC-97TM1; first compound 0.002 µM
  relative viability: 0.421
LCLC-97TM1; first compound 0.006325 µM
  relative viability: 0.5
LCLC-97TM1; first compound 0.06325 µM
  relative viability: 0.401
LCLC-97TM1; first compound 0.2 µM
  relative viability: 0.257
NCI-H2405; first compound 0.002 µM
  relative viability: 0.948
NCI-H2405; first compound 0.02 µM
  relative viability: 0.813
NCI-H2405; first compound 0.06325 µM
  relative viability: 0.181
NCI-H2405; first compound 0.2 µM
  relative viability: 0.182
NCI-H838; first compound 0.002 µM
  relative viability: 0.772
NCI-H838; first compound 0.006325 µM
  relative viability: 0.782
NCI-H838; first compound 0.02 µM
  relative viability: 0.723
NCI-H838; first compound 0.06325 µM
  relative viability: 0.122
NCI-H838; first compound 0.2 µM
  relative viability: 0.129
LU99A; first compound 0.002 µM
  relative viability: 0.294
LU99A; first compound 0.006325 µM
  relative viability: 0.236
LU99A; first compound 0.02 µM
  relative viability: 0.226
LU99A; first compound 0.06325 µM
  relative viability: 0.174
LU99A; first compound 0.2 µM
  relative viability: 0.138
NCI-H2085; first compound 0.002 µM
  relative viability: 0.78
NCI-H2085; first compound 0.006325 µM
  relative viability: 0.742
NCI-H2085; first compound 0.02 µM
  relative viability: 0.766
NCI-H2085; first compound 0.06325 µM
  relative viability: 0.425
NCI-H2085; first compound 0.2 µM
  relative viability: 0.337
201T; first compound 0.002 µM
  relative viability: 0.883
201T; first compound 0.006325 µM
  relative viability: 0.829
201T; first compound 0.02 µM
  relative viability: 0.87
201T; first compound 0.06325 µM
  relative viability: 0.803
201T; first compound 0.2 µM
  relative viability: 0.784
NCI-H1355; first compound 0.002 µM
  relative viability: 0.757
NCI-H1355; first compound 0.006325 µM
  relative viability: 0.695
NCI-H1355; first compound 0.02 µM
  relative viability: 0.611
NCI-H1355; first compound 0.06325 µM
  relative viability: 0.188
NCI-H1355; first compound 0.2 µM
  relative viability: 0.149
NCI-H647; first compound 0.002 µM
  relative viability: 0.536
NCI-H647; first compound 0.006325 µM
  relative viability: 0.577
NCI-H647; first compound 0.02 µM
  relative viability: 0.273
NCI-H647; first compound 0.06325 µM
  relative viability: 0.0706
NCI-H647; first compound 0.2 µM
  relative viability: 0.059
